# Experimental data taken from patent publication US11844791B2, “Use of antagonists and/or inverse agonists of CB1 receptors for preparing medicaments for treating fatigue post-viral fatigue syndrome” (FUNDACION HOSPITAL NACIONAL DE PARAPÉJICOS, priority 2020, dated 2023).
# Key:
# [1] = as previously described; cited from earlier work
# [2] = tested on: healthy volunteers; assay: Tolerability and adverse effects of a single Rimonabant dose in healthy volunteers; type: in vivo, human; settings: single dose 20 mg
# Protocol: (§1) Neurophysiological examination was performed before and 24 hours after the administration of a single dose of 20 mg of Rimonabant.
# (§2) Nine healthy volunteers (mean age±S.D. 32.1±5.8 years) participated in all experiments. All the subjects gave their written informed consent.
# Hitherto, three subjects experienced agitation and anxiety (this effect lasted an average of 6 hours) and one suffered for nausea (for 24 hours).
# [3] = tested on: human motor system (motor cortex and spinal motor neurons); assay: Transcranial magnetic stimulation: MEP amplitude in first dorsal interosseous muscle before and 24 hours after a single Rimonabant dose; type: in vivo; settings: healthy subjects, 24 hours after single dose Rimonabant 20 mg; MEP at 120% RMT, FDI at rest; baseline 1.1±0.6 mV; paired T test p=0.02
# Protocol: The aim of the present experiments was to use transcranial magnetic stimulation to test the effects of a single dose of 20 mg of Rimonabant on the excitability of motor cortex and of spinal motor neurons.
# as §1
# Using transcranial magnetic stimulation (TMS), it was evaluated the thresholds for electromyographic responses in the first dorsal interosseous muscle (FDI) at rest and during voluntary contraction.
# as §2
# Magnetic stimulation was performed using a high-power Magstim 200 magnetic stimulator (Magstim Co., Whitland, UK). A figure-of-eight coil with external loop diameters of 9 cm was held over the right motor cortex at the optimum scalp position to elicit motor responses in the contralateral first dorsal interosseous (FDI). The induced current flowed in a postero-anterior direction. Resting motor threshold (RMT) was defined as the minimum stimulus intensity that produced a liminal motor evoked response (about 50 μV in 50% of 10 trials) at rest. The main variables we test is the RMT and MEP amplitude before and 24 hours after the Rimonabant 20 mg. MEP amplitude was obtained at 120% RMT. […]
compound,measurement,setting,value
"Cc1c(C(=O)NN2CCCCC2)nn(-c2ccc(Cl)cc2Cl)c1-c1ccc(Cl)cc1 [Rimonabant, N-(piperidino-1-yl)-5-(4-chlorophenyl)-1-(2,4-dichlorophenyl)-4-methylpyrazole-3-carboxamide]",Blood-brain barrier penetration,[1],penetrates the blood-brain barrier
same,Average duration of agitation and anxiety,[2]; healthy volunteers,6 h
same,Duration of nausea,[2]; healthy volunteers,24 h
same,Effects on vigilance,[2]; healthy volunteers,moderate
same,Subjects who experienced agitation and anxiety,[2]; of nine healthy volunteers,three
same,Subjects who suffered nausea,[2]; of nine healthy volunteers,one
same,"MEP amplitude (motor system excitability), mean±S.D.",[3],2.1±1.2 mV
